Measurements as given in patent US20220332763A1, “FUSED POLYPEPTIDE AND USE THEREOF” (NANJING ANJI BIOLOGICAL TECHNOLOGY CO., LTD., priority 2019, published 2022).
Where no end group is shown, it is not given here.

Key:
[1] = tested on: SD rats with bleomycin-induced pulmonary fibrosis; experiment: Bleomycin-induced pulmonary fibrosis animal model; assay type: in vivo; conditions: dosage 10 mg/kg in Table 2, administration 14 days, model group 50
Description: SD rats were anesthetized by intraperitoneal injection of 1 mL/100 g 4% chloral hydrate. After anesthesia, the rats were fixed and their necks were disinfected by using cotton with 75% alcohol. The skin of the rat neck was longitudinally cut with scissors, and the fascia and muscle were longitudinally bluntly torn with tweezers to expose the trachea. A syringe was inserted into the trachea to inject 5 mg/kg bleomycin, while a blank group was injected with an equal amount of normal saline. Then a rat plate was quickly erected and rotated, the rats' breathing was observed, the neck wound was sterilized after rotation and was sewn, and an amoxicillin anti-inflammatory drug was sprinkled on the suture. After the operation, the rats were put back into a dry and clean cage for resting, waiting was performed for awakening. The rats were awakened after about 1-2 hours, and then fed normally. On the 7th day after modeling, modeling group animals randomly fell into a model group, a Nintedanib positive drug group, polypeptide I, II, III, IV, V, VI dosage groups, and a normal control group, and the groups were administered separately for an administration cycle of 14 days. Living situations of rats were observed every day and their weights were weighed. After administration for 14 days, the SD rats were dissected, the lung tissue was taken, and the right lung tissue was placed in a tissue fixative only for fixation, and HE staining and Masson staining and slice analysis were performed.

[2] = tested on: LX-2 hepatic stellate cells; experiment: In vitro hepatic fibrosis model, MTT assay; assay type: cell-based; conditions: 1 μmol/L; for Inhibition of proliferation (in words): 24 hours and 48 hours, Example 2; for Optical density value, 12 h / Optical density value, 24 h / Optical density value, 48 h: LX-2 cells, MTT, OD at 570 nm; for Optical density value, 12 h: blank group 0.456 ± 0.012; for Optical density value, 24 h: blank group 0.548 ± 0.01; for Optical density value, 48 h: blank group 0.812 ± 0.016
Description: (§1) The inhibitory effect of a polypeptide on LX-2 hepatic stellate cells was detected by MTT assay. Cells were cultured in a 1640 medium containing 10% of FBS, the […] was made into 4×10^5/mL cell suspension, and 100 μL per well was inoculated into a 96-well plate. After the cells adhered to the wall, the medium was replaced with a serum-free 1640 medium, and the serum-free medium was discarded after 24 hours. The cells were cultured with different polypeptides of 1 μmol/L, and 5 multiple wells were set for each concentration. After 12, 24 and 48 hours separately, 10 μL of MTT was added to each well. After 4 hours, MTT was sucked out, and 150 μL of DMSO was added to each well. After reaction for 5 min, an OD value was measured at 570 nm by a microplate reader.

TGF-β1 = experiment: Renal fibrosis animal model (ureter ligation), TGF-β1 in serum; assay type: in vivo; conditions: SD rats with renal fibrosis; 7.5 mg/kg subcutaneous twice a day, 14 days; FIG. 3
Description: A renal fibrosis animal model was established. SD rats were anesthetized with 4% chloral hydrate, injected with 1 mL/100 g intraperitoneally, fixed to an operation board, and sterilized in an operation area for later use. […] Muscular layers and abdominal walls were sewed layer by layer, the suture was disinfected with alcohol. After SD rats woke up, the rats were put into a cage for feeding. In the blank group, ureter was not ligated, and other steps were the same.
Then, the animals fell into a blank group, a model group, and polypeptide administration groups, with 10 animals in each group, and the administration was started on the second day after the operation, twice a day for 14 days. After administration for 14 days, blood was taken and supernatant was taken to detect the content of TGF-β1 in serum.

[3] = tested on: cardiac fibroblasts of rats; experiment: Myocardial fibrosis model, MTT assay; assay type: cell-based; conditions: 1 μmol/L; for Inhibition of proliferation of cardiac fibroblasts of rats (in words): 24 hours and 48 hours; for Optical density value, 12 h / Optical density value, 24 h / Optical density value, 48 h: cardiac fibroblasts of rats, MTT, OD at 570 nm; for Optical density value, 12 h: blank group 0.353 ± 0.001; for Optical density value, 24 h: blank group 0.464 ± 0.018; for Optical density value, 48 h: blank group 0.896 ± 0.001
Description: as §1, with “cardiac fibroblasts of rats” for “LX-2 hepatic stellate cells”, “DMEM” for “1640”, “1×10^5/mL” for “4×10^5/mL”

HYP = experiment: Bleomycin skin fibrosis model, HYP content in skin tissue; assay type: in vivo, C57/BL black mice; conditions: bleomycin skin fibrosis mice; 10 mg/kg subcutaneous twice a day, 28 days; FIG. 4
Description: Bleomycin (10 μg/mL) was injected subcutaneously every day for 28 days to form skin fibrosis. During the modeling period, the administration groups were given polypeptide drugs twice a day for treatment. After modeling, the mice were killed on the next day, and the skin tissue of the mouse back was taken to detect the content of HYP in the skin tissue.

Sequence	Survival rate (%) [1] [%]	Inhibition of proliferation (in words) [2]	Optical density value, 12 h [2]	Optical density value, 24 h [2]	Optical density value, 48 h [2]	Content of TGF-β1 in serum versus model group (TGF-β1)	Inhibition of proliferation of cardiac fibroblasts of rats (in words) [3]	Optical density value, 12 h [3]	Optical density value, 24 h [3]	Optical density value, 48 h [3]	Expression of HYP content in tissue versus model group (HYP)
LSKLGGGGTSLDASIIWAMMQNGGGGSDKP [Polypeptide VI, Leu-Ser-Lys-Leu-linker-Thr-Ser-Leu-Asp-Ala-Ser-Ile-Ile-Trp-Ala-Met-Met-Gln-Asn-linker-Ser-Asp-Lys-Pro]	70	could inhibit the proliferation	0.453 ± 0.021	0.502 ± 0.013	0.652 ± 0.018	highly significantly different from the model group (**P<0.01)	could inhibit the proliferation	0.340 ± 0.012	0.412 ± 0.005	0.622 ± 0.007	highly significantly different from the model group (***P<0.001)
TSLDASIIWAMMQNGGGGLSKLGGGGSDKP [Polypeptide IV, Thr-Ser-Leu-Asp-Ala-Ser-Ile-Ile-Trp-Ala-Met-Met-Gln-Asn-linker-Leu-Ser-Lys-Leu-linker-Ser-Asp-Lys-Pro]	80	could inhibit the proliferation	0.478 ± 0.018	0.472 ± 0.03	0.580 ± 0.012	highly significantly different from the model group (***P<0.001)	could inhibit the proliferation	0.362 ± 0.015	0.392 ± 0.008	0.583 ± 0.012	highly significantly different from the model group (***P<0.001)
TSLDASIIWAMMQNGGGGSDKPGGGGLSKL [Polypeptide III, Thr-Ser-Leu-Asp-Ala-Ser-Ile-Ile-Trp-Ala-Met-Met-Gln-Asn-linker-Ser-Asp-Lys-Pro-linker-Leu-Ser-Lys-Leu]	80	could inhibit the proliferation	0.455 ± 0.002	0.435 ± 0.013	0.642 ± 0.018	highly significantly different from the model group (**P<0.01)	could inhibit the proliferation	0.349 ± 0.012	0.413 ± 0.003	0.612 ± 0.018	highly significantly different from the model group (*P<0.05)
